# Results from patent US20170199175A1, “DEVICE AND METHOD FOR ASSESSING CELL CONTRACTION” (The Governing Council of the University of Toronto, priority 2014, published 2017).
# Entries after “also recorded” stand apart in the source; their conditions may differ.
# Tested on: hES2-derived cardiomyocytes
# Experiment: Wrinkling-based contraction analysis of periodically contracting cardiomyocyte colonies on silicone elastomer film
# Format: cell-based, human
# Details: live treatment in three concentrations (high, medium, low): ouabain and nifidepine 0.3, 3, 30 μM; isoproterenol and blebbistatin 0.1, 1, 10 μM
# Procedure: To meet standard requirements on product shelf life and ease-of-shipping, the surface treatment method was refined to provide the film surface with a dry layer of adhesive protein. The improved treatment process (“APTES/EDAC”) comprises sequential oxidation with plasma oxygen, 1% APTES for 90 min, 100 μg/ml 1-Ethyl-3-(3-dimethylaminopropyl) carbodiimide (EDAC) for 10 min (to replace the previous paraformaldehyde step), protein wet coating, and air drying. Fibronectin and gelatin were used as most widely applied proteins to promote cardiomyocyte adhesion.
# The number of beating colonies was at least 20-30/well across all protein coatings following APTES/EDAC treatment but <10 beating colonies/well without APTES/EDAC functionalization (FIG. 17C). APTES/EDAC functionalization obtained wrinkles which were visible in ˜50% of all beating colonies (FIG. 17D). APTES/EDAC treated surfaces with fibronectin (2 μg/ml) and gelatin (2 and 20 μg/ml) coating were selected to optimize cell densities for contraction analysis. Cardiomyocyte seeding densities were reduced from 50,000 to 25,000, 10,000 and 5,000 cells/cm^2 and wrinkling percentages were quantified. With cell density adaptation, the percentage of wrinkling among beating colonies reached 80-90% across all protein coatings with 10,000-25,000 cells/cm^2. […] Too low density reduced the number of beating colonies and percentage of wrinkling cells (FIG. 17E). For all further experiments, the plasma oxidized and APTES/EDAC-treated biocompatible silicone elastomers of 96-wells were coated with gelatin at a concentration of 2 μg/ml and provided with 10,000 cells/cm^2 before wrinkling was assessed after 2 days.
# Cardiomyocyte contraction was assessed by recording image sequences over at least 15 s with an image acquisition rate of 10 frames/s. Acquisition was performed well-by-well on four image fields per well using the 10× objective of an inverted microscope with motorized stage and fully automated stage/acquisition control. The setup was chosen to provide conditions equivalent to commercially available HTS imaging stations. […] When comparing the signals generated by contracting cardiomyocytes on films with the competitive method of shape analysis on stiff culture substrates, wrinkling analysis delivered a 10-20-fold higher signal (FIG. 18).
# Referring to FIG. 28, periodically contracting cardiomyocyte colonies were recorded and live treated with cardiomyocyte affecting drugs in three concentrations (high, medium, low). Ouabain (0.3, 3, 30 μM) increased contraction amplitude at unchanged frequency, nifidepine (0.3, 3, 30 μM) decreased contraction amplitude and increased frequency, isoproterenol (0.1, 1, 10 μM) increased contraction frequency and amplitude, and blebbistatin (0.1, 1, 10 μM) decreased contraction amplitude and frequency.
Compound,contraction (beating) amplitude,contraction (beating) frequency
C[C@@H]1O[C@@H](O[C@H]2C[C@@H](O)[C@]3(CO)[C@H]4[C@H](O)C[C@]5(C)[C@@H](C6=CC(=O)OC6)CC[C@]5(O)[C@@H]4CC[C@]3(O)C2)[C@H](O)[C@H](O)[C@H]1O [Ouabain],increased,unchanged
Cc1ccc2c(c1)C(=O)C1(O)CCN(c3ccccc3)C1=N2 (stereo not drawn) [blebbistatin],decreased,decreased
CC(C)NCC(O)c1ccc(O)c(O)c1 (stereo not drawn) [isoproterenol],increased,increased
COC(=O)C1=C(C)NC(C)=C(C(=O)OC)C1c1ccccc1[N+](=O)[O-] [nifidepine],decreased,increased

# Tested on: fibroblasts
# Experiment: Wrinkling of PDMS silicone elastomer film by contractile fibroblasts (live videomicroscopy, kymograph analysis)
# Format: cell-based, rat
# Details: 1:100 PDMS film, plasma + APTES + paraformaldehyde + collagen; LPA 10 μM, cytochalasin D 1-10 μM, Y27632 10 μM
# Procedure: Primary rat lung myofibroblasts and subcutaneous fibroblasts (SCF) were derived from explants and cultured from passage 2-7. All cells, including lineage aortic smooth muscle cells (A7r5) and rat embryonic fibroblasts (REF-52) were cultured in DMEM (Gibco-BRL, Basel, CH), containing 10% FCS and antibiotics. Cytochalasin D (Sigma) was used at 1-10 μM, blebbistatin (Calbiochem, Darmstadt, Germany) at 10 μM, Y27632 (Calbiochem) at 10 μM and lysophosphatic acid (LPA) (Sigma) at 10 μM. For FA maturation analysis, REF-52 were stably transfected with β3 integrin-GFP (16), full-length GFP-paxillin (Zamir et al, 2000), and α-SMA-GFP (Clement et al., 2005), using Fugene 6 (Roche, Reinach, CH).
# To reduce pipetting errors and to ameliorate the mixing process, curing agent can be pre-diluted in toluene without changing the elastic properties of the polymerized material. PDMS films of 200 μm thickness were produced by distributing the respective volume with a pipette tip onto glass coverslips (#0, Karl Hecht KG, Sondheim, Germany) at the bottom of homemade observation chambers or on standard culture dishes. Substrates were degassed in a desiccator and polymerized for minimum 3 d at RT. Polymerized films were kept at RT for up to two months without changing compliance. Alternative polymerization protocols using higher curing temperatures are possible but will have an influence on the elastic modulus of the film (Lee et al., 2004). […]
# Confocal images of fixed specimen were acquired using a 40× oil immersion objective (HC PL APO, NA 1.25-0.75, Leica, Glattbrugg, CH), mounted on an inverted confocal microscope (DM IRE2 with a laser scanning confocal head TCS SP2 AOBS, Leica). […] Phase contrast sequences were taken at a rate of 1 frame/min and live fluorescence images every 30 min using 20× (Plan-Apochromat, Ph2, NA 0.5) and 40× (Plan-Neofluar, Ph3, NA 1.3 oil immersion, Zeiss) objectives. […]
row,Compound,cell contraction (number and extension of wrinkles)
1,C[C@@H](N)[C@H]1CC[C@H](C(=O)Nc2ccncc2)CC1 [Y27632],completely abolished
2,"C=C1[C@@H](C)[C@H]2[C@H](Cc3ccccc3)NC(=O)[C@]23[C@H](OC(C)=O)/C=C/[C@@](C)(O)C(=O)[C@@H](C)C/C=C/[C@H]3[C@@H]1O [cytochalasin D, Cytochalasin D]",completely abolished; also recorded: loss of cell contraction
3,lysophosphatic acid [LPA],increased cell contraction

# Tested on: cardiomyocytes
# Experiment: not given
# Details: benchmark drugs, Yokoo et al. 2009 / Gai et al. 2009; cited from earlier work
row,Compound,frequency of beating
1,CNCC(O)c1ccc(O)c(O)c1 (stereo not drawn) [adrenaline],increase
2,COc1ccc([C@@H]2Sc3ccccc3N(CCN(C)C)C(=O)[C@@H]2OC(C)=O)cc1 [diltiazem],decrease
3,O=C(NCC1CCCCN1)c1cc(OCC(F)(F)F)ccc1OCC(F)(F)F (stereo not drawn) [felcainide],decrease
4,CC(C)NCC(O)c1ccc(O)c(O)c1 (stereo not drawn) [isoproterenol],increase
5,CNC[C@H](O)c1cccc(O)c1 [phenylephrine],increase
6,CCN(CC)CCNC(=O)c1ccc(N)cc1 [procainamide],decrease
7,COc1ccc(CCN(C)CCCC(C#N)(c2ccc(OC)c(OC)c2)C(C)C)cc1OC (stereo not drawn) [verapamil],decrease
